# Measured values: BindingDB's records for doi:10.1021/jm00041a005 (Agouron Pharmaceuticals, 1994)
# Target: T1, Dimer of Gag-Pol polyprotein [489-587] (Human immunodeficiency virus 1, UniProt P12497)
# T1 construct: 489-587
# Assay: Protease Inhibition Assay
# Details: pH 5.5; 37 °C
# Description: Protease activity was measured by continuous chromogenic assay. The chromogenic peptide His-Lys-Ala-Arg-Val-Leu- (p-NO2-Phe)-Glu-Ala-Nleu-Ser (Bachem) was used as a substrate. Reactions were followed by the decrease of absorbance at 300 nm measured by spectrophotometer. Experimental results were analyzed by the nonlinear regression analysis, using a mathematical model for tight binding inhibitors.
row,SMILES,Ki [µM]
1,NC(=O)C[C@H](NC(=O)c1ccc2ccccc2n1)C(=O)N[C@@H](Cc1ccccc1)[C@@H](O)C[C@@H](Cc1ccccc1)C(=O)NC(c1ccccc1)c1cc2ccccc2[nH]1 (stereo partly drawn) [2 -Benzyl-4-h ydrox y-5((N -2-quinaloyl-L-asparagyl)amidno)-6-phenylhexanoic Acid (a-(2-indolylbenzyl)amide],1.28
2,NC(=O)C[C@H](NC(=O)c1ccc2ccccc2n1)C(=O)N[C@@H](Cc1ccccc1)[C@@H](O)CCC(=O)NC(c1ccccc1)c1nc2ccccc2[nH]1 (stereo partly drawn) [4-Hydroxy-5-( (N-2-quinaloyl-L-asparagyl)amino)-6-phenylhexanoic Acid (a-(2-benzyimidazolyl)benzyl)amide],0.48
3,Cc1cccc(C(NC(=O)CC[C@H](O)[C@H](Cc2ccccc2)NC(=O)[C@H](CC(N)=O)NC(=O)c2ccc3ccccc3n2)c2cc3ccccc3[nH]2)c1 (stereo partly drawn) [4-Hydroxy-5-((N-2-quinaloyl-L-asparagyl)amino)-6-phenylhexanoic Acid (a-(2-indolyl)-m-methylbenzyl)amide],0.039
4,C[C@H](N)C(=O)N[C@@H](C)C(=O)N[C@@H](Cc1ccccc1)[C@@H](O)CCC(=O)NC(c1ccccc1)c1nc2ccccc2[nH]1 (stereo partly drawn) [5-(L-Alanyl-L-alanylamino)-4-hydroxy-phenylhexanoic Acid ((1H-BenzimiaazOl-2-yl)phenylmethyl)amide],5.37
5,"NC(=O)C[C@H](NC(=O)c1ccc2ccccc2n1)C(=O)N[C@@H](Cc1ccccc1)[C@@H](O)CCC(=O)NC(c1cccc(C(F)(F)F)c1)c1cc2ccccc2[nH]1 (stereo partly drawn) [(2S)-N-[(2S,3S)-3-hydroxy-5-({1H-indol-2-yl[3-(trifluoromethyl)phenyl]methyl}carbamoyl)-1-phenylpentan-2-yl]-2-(quinolin-2-ylformamido)butanediamide]",0.033
6,"NC(=O)C[C@H](NC(=O)c1ccc2ccccc2n1)C(=O)N[C@@H](Cc1ccccc1)[C@@H](O)CCC(=O)NC(c1ccccc1)c1cc2ccccc2[nH]1 (stereo partly drawn) [(2S)-N-[(2S,3S)-3-hydroxy-5-{[1H-indol-2-yl(phenyl)methyl]carbamoyl}-1-phenylpentan-2-yl]-2-(quinolin-2-ylformamido)butanediamide]",0.043
7,"NC(=O)C[C@H](NC(=O)c1ccc2ccccc2n1)C(=O)N[C@@H](Cc1ccccc1)[C@@H](O)CCC(=O)NC(c1cc2ccccc2[nH]1)C1CCCCC1 (stereo partly drawn) [(2S)-N-[(2S,3S)-5-{[cyclohexyl(1H-indol-2-yl)methyl]carbamoyl}-3-hydroxy-1-phenylpentan-2-yl]-2-(quinolin-2-ylformamido)butanediamide]",0.18
8,"COC(=O)[C@@H](NC(=O)[C@@H](NC(=O)CC[C@H](O)[C@H](Cc1ccccc1)NC(=O)[C@H](C)NC(=O)[C@H](C)N)C(C)C)C(C)C [methyl (2S)-2-[(2S)-2-[(4S,5S)-5-[(2S)-2-[(2S)-2-aminopropanamido]propanamido]-4-hydroxy-6-phenylhexanamido]-3-methylbutanamido]-3-methylbutanoate]",0.018
